Measurements published in US12653191B2, “Active compound combinations” (Bayer Aktiengesellschaft, priority 2020, dated 2026).
Where two headings read alike, the source gives them in different places.

Legend:
Fusarium culmorum [1] = assay: in vitro-Test with fungal microorganisms, Method A (tables G1-G4); type: cell-based; conditions: Fusarium culmorum, alone, read-out: Efficacy
Procedure, shortened: (§1)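 First, compound in methanol with alkylaryl-polyglycol-ether was dried down in the plate. Next, spore or mycelium suspension in potato dextrose broth was added and extinction read at 620 nm. After 3-5 days at 20° C, 85% RH, reading was repeated and efficacy scored against untreated wells.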

Diaporthe citri [2] = assay: in vitro-Test with fungal microorganisms, Method B (tables F12-F15); type: cell-based
Procedure, shortened: (§2)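 Steps: solvent evaporation leaves the compound coating the wells; fungus-inoculated liquid growth medium goes on top; absorbance at 600 nm is measured; incubation runs 3 to 7 days at 20° C. with 85% relative humidity. Inhibition is then read photometrically and expressed as efficacy against untreated control.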

[3] = system: Colletotrichum lindemuthianum; assay: in vitro-Test with fungal microorganisms, Method A (tables D1-D8); type: cell-based; conditions: Colletotrichum lindemuthianum
Procedure, shortened: as §1

Alternaria alternate = assay: in vitro-Test with fungal microorganisms, Method A (tables A1-A12); type: cell-based, Alternaria alternata
Procedure, shortened: as §1

Cercospora beticola [4] = assay: in vitro-Test with fungal microorganisms, Method B (tables C11-C20); type: cell-based; conditions: Cercospora beticola, read-out: Efficacy %
Procedure, shortened: as §2

Colletotrichum coccodes = assay: in vitro-Test with fungal microorganisms, Method B (tables J1-J11); type: cell-based; conditions: Colletotrichum coccodes
Procedure, shortened: as §2

Botrytis cinerea = assay: in vitro-Test with fungal microorganisms, Method A (tables B1-B14); type: cell-based; conditions: Botrytis cinerea
Procedure, shortened: as §1

Cordana musae [5] = assay: in vitro-Test with fungal microorganisms, Method A (tables E1-E8); type: cell-based; conditions: Neocordana musae
Procedure, shortened: as §1

[6] = system: Ustilago segetum var. avenae; assay: in vitro-Test with fungal microorganisms, Method B (tables I6-I11); type: cell-based; conditions: read-out: Efficacy %
Procedure, shortened: as §2

Alternaria alternata = assay: in vitro-Test with fungal microorganisms, Method B (tables A13-A22); type: cell-based; conditions: Alternaria alternata
Procedure, shortened: as §2

Fusarium culmorum [7] = assay: in vitro-Test with fungal microorganisms, Method B (tables G5-G15); type: cell-based; conditions: Fusarium culmorum, read-out: Efficacy
Procedure, shortened: as §2

Diaporthe citri [8] = assay: in vitro-Test with fungal microorganisms, Method A (tables F1-F11); type: cell-based; conditions: Diaporthe citri
Procedure, shortened: as §1

Cercospora beticola [9] = assay: in vitro-Test with fungal microorganisms, Method A (tables C1-C10); type: cell-based
Procedure, shortened: as §1

Cordana musae [10] = assay: in vitro-Test with fungal microorganisms, Method B (tables E9-E16); type: cell-based; conditions: for Efficacy %: single substance
Procedure, shortened: as §2

[11] = system: Ustilago segetum var. avenae; assay: in vitro-Test with fungal microorganisms, Method A (tables I1-I5); type: cell-based
Procedure, shortened: as §1

Parastagonospora nodorum [12] = assay: in vitro-Test with fungal microorganisms, Method A (tables H1-H4); type: cell-based
Procedure, shortened: as §1

Parastagonospora nodorum [13] = assay: in vitro-Test with fungal microorganisms, Method B (tables H5-H8); type: cell-based; conditions: Parastagonospora nodorum
Procedure, shortened: as §2

[14] = read-out: Efficacy %, mixing partner alone, 0.04 ppm
[15] = read-out: Efficacy %, mixing partner alone, 0.2 ppm
[16] = read-out: Efficacy %, mixing partner alone, 1.0 ppm
[17] = read-out: Efficacy %, mixing partner alone, 5.0 ppm
[18] = read-out: Efficacy %, alone, 1.0 ppm
[19] = read-out: Efficacy %, alone, 5.0 ppm

## N#Cc1c[nH]cc1-c1cccc2c1OC(F)(F)O2 [(13.001) fludioxonil, fludioxonil]
Fusarium culmorum [1]; 0.2 ppm
  inhibition of growth at 0.2 ppm: 36%
Fusarium culmorum [1]; 1.0 ppm
  inhibition of growth at 1 ppm: 98%
Fusarium culmorum [1]; 5.0 ppm
  inhibition of growth at 5 ppm: 99%
Diaporthe citri [2]; Table F12, 0.2 ppm alone
  Efficacy: 0%
Diaporthe citri [2]; Table F12, 1 ppm alone
  Efficacy: 9%
Diaporthe citri [2]; Table F13, 1 ppm alone
  Efficacy: 41%
Diaporthe citri [2]; Table F13, 5 ppm alone
  Efficacy: 0%
[3]; [14]
  inhibition of growth at 0.04 ppm: 11%
[3]; [15]
  inhibition of growth at 0.2 ppm: 60%
[3]; [16]
  inhibition of growth at 1 ppm: 85%
[3]; [17]
  inhibition of growth at 5 ppm: 90%
[3]; read-out: Efficacy %, single active at 0.04 ppm
  inhibition of growth at 0.04 ppm: 0%
[3]; read-out: Efficacy %, single active at 0.2 ppm
  inhibition of growth at 0.2 ppm: 58%
[3]; read-out: Efficacy %, single active at 5.0 ppm
  inhibition of growth at 5 ppm: 88%
Alternaria alternate; Alternaria, read-out: Efficacy %, applied alone, 0.04 ppm
  inhibition of growth at 0.04 ppm: 9%
Alternaria alternate; Alternaria, read-out: Efficacy %, applied alone, 0.2 ppm
  inhibition of growth at 0.2 ppm: 17%
Alternaria alternate; Alternaria, read-out: Efficacy %, applied alone, 1.0 ppm
  inhibition of growth at 1 ppm: 97%
Alternaria alternate; Alternaria, read-out: Efficacy %, applied alone, 5.0 ppm
  inhibition of growth at 5 ppm: 100%
Alternaria alternate; applied alone, 0.04 ppm
  Efficacy %: 0%
Cercospora beticola [4]
  inhibition of growth at 5 ppm: 93%
Colletotrichum coccodes; read-out: Efficacy %, 0.04 ppm
  inhibition of growth at 0.04 ppm: 54%
Colletotrichum coccodes; read-out: Efficacy %, 1 ppm
  inhibition of growth at 1 ppm: 100%
Colletotrichum coccodes; read-out: Efficacy %, 5 ppm
  inhibition of growth at 5 ppm: 100%
Colletotrichum coccodes; read-out: Efficacy %, single active compound at 0.04 ppm
  inhibition of growth at 0.04 ppm: 74%
Botrytis cinerea; read-out: Efficacy %, alone, 0.2 ppm
  inhibition of growth at 0.2 ppm: 100%
Botrytis cinerea; [18]
  inhibition of growth at 1 ppm: 100%
Botrytis cinerea; [19]
  inhibition of growth at 5 ppm: 100%
Botrytis cinerea; read-out: Efficacy, 0.04 ppm
  inhibition of growth at 0.04 ppm: 19%
Botrytis cinerea; read-out: Efficacy, 0.2 ppm
  inhibition of growth at 0.2 ppm: 100%
Cordana musae [5]; [14]
  inhibition of growth at 0.04 ppm: 2%
Cordana musae [5]; [15]
  inhibition of growth at 0.2 ppm: 0%
Cordana musae [5]; [16]
  inhibition of growth at 1 ppm: 83%
Cordana musae [5]; [17]
  inhibition of growth at 5 ppm: 55%
Cordana musae [5]; read-out: Efficacy %, single substance, 0.04 ppm
  inhibition of growth at 0.04 ppm: 0%
[6]
  inhibition of growth at 0.04 ppm: 55%
  inhibition of growth at 0.2 ppm: 93%
  inhibition of growth at 5 ppm: 100%
Alternaria alternata; read-out: Efficacy, 1 ppm
  inhibition of growth at 1 ppm: 88%
Alternaria alternata; read-out: Efficacy, 5 ppm
  inhibition of growth at 5 ppm: 100%
Alternaria alternata; read-out: Efficacy, single compound, 0.04 ppm
  inhibition of growth at 0.04 ppm: 13%
Alternaria alternata; read-out: Efficacy, single compound, 0.2 ppm
  inhibition of growth at 0.2 ppm: 18%
Alternaria alternata; read-out: Efficacy, single compound, 5 ppm
  inhibition of growth at 5 ppm: 99%
Fusarium culmorum [7]; alone
  inhibition of growth at 0.04 ppm: 0%
  inhibition of growth at 0.2 ppm: 22%
  inhibition of growth at 1 ppm: 68%
Fusarium culmorum [7]; 5 ppm, alone
  inhibition of growth at 5 ppm: 98%
Fusarium culmorum [7]; single active compound
  inhibition of growth at 0.04 ppm: 0%
  inhibition of growth at 0.2 ppm: 26%
  inhibition of growth at 1 ppm: 88%
Diaporthe citri [8]; read-out: Efficacy, applied alone, 0.04 ppm
  inhibition of growth at 0.04 ppm: 0%
Diaporthe citri [8]; read-out: Efficacy, applied alone, 0.2 ppm
  inhibition of growth at 0.2 ppm: 0%
Cercospora beticola [9]; 5.0 ppm alone
  Efficacy %: 98%
Cercospora beticola [9]; Cercospora beticola, read-out: Efficacy %, 0.04 ppm
  inhibition of growth at 0.04 ppm: 0%
Cercospora beticola [9]; Cercospora beticola, read-out: Efficacy %, 0.04 ppm alone
  inhibition of growth at 0.04 ppm: 0%
Cercospora beticola [9]; Cercospora beticola, read-out: Efficacy %, 0.2 ppm alone
  inhibition of growth at 0.2 ppm: 14%
Cercospora beticola [9]; Cercospora beticola, read-out: Efficacy %, 1.0 ppm
  inhibition of growth at 1 ppm: 55%
Cercospora beticola [9]; Cercospora beticola, read-out: Efficacy %, 5.0 ppm
  inhibition of growth at 5 ppm: 90%
Cercospora beticola [9]; Cercospora beticola, read-out: Efficacy %, 5.0 ppm alone
  inhibition of growth at 5 ppm: 93%
Cordana musae [10]; Neocordana musae, read-out: Efficacy
  inhibition of growth at 0.04 ppm: 6%
Cordana musae [10]; 0.2 ppm
  Efficacy %: 0%
Cordana musae [10]; 1 ppm
  Efficacy %: 0%
Cordana musae [10]; 5 ppm
  Efficacy %: 11%
[11]; read-out: Efficacy %, alone, 0.04 ppm
  inhibition of growth at 0.04 ppm: 19%
[11]; [18]
  inhibition of growth at 1 ppm: 100%
[11]; [19]
  inhibition of growth at 5 ppm: 100%
Parastagonospora nodorum [12]; 0.04 ppm
  Efficacy: 0%
Parastagonospora nodorum [12]; 0.2 ppm
  Efficacy: 0%
Parastagonospora nodorum [12]; single active compound, 0.04 ppm
  Efficacy: 0%
Parastagonospora nodorum [12]; single active compound, 0.2 ppm
  Efficacy: 0%
Parastagonospora nodorum [12]; single active compound, 1.0 ppm
  Efficacy: 38%
Parastagonospora nodorum [12]; single active compound, 5.0 ppm
  Efficacy: 64%
Parastagonospora nodorum [13]; read-out: Efficacy, 1 ppm
  inhibition of growth at 1 ppm: 58%
Parastagonospora nodorum [13]; read-out: Efficacy, 5 ppm
  inhibition of growth at 5 ppm: 98%
